Source: publication PMC9354638, “Targeting p21-activated kinase 4 (PAK4) with pyrazolo[3,4-d]pyrimidine derivative SPA7012 attenuates hepatic ischaemia-reperfusion injury in mice” (Journal of Enzyme Inhibition and Medicinal Chemistry, 2022)

How the values were obtained:
[1] = tested on: PAK4-mediated phosphorylation of Nrf2; test: Co-IP analysis of PAK4-mediated Nrf2 phosphorylation in HEK293T cells; type: cell-based, human; conditions: HEK293T cells overexpressing Nrf2 and PAK4, 24 h transfection
Description: The human embryonic kidney cell line HEK293T was obtained from the American Type Culture Collection (Manassas, VA, USA). For the Nrf2 reporter gene assay, 1 μg of a plasmid containing a promoter with an ARE driving luciferase expression was used. Exogenous proteins were expressed by transfecting HEK293T cells with 1 μg of Nrf2 and PAK4 with Lipofectamine 3000 (Invitrogen, Carlsbad, CA, USA). Luciferase activity was measured using a Dual-Luciferase Reporter Assay (Promega, Madison, WI, USA) by Lumat LB 9507 (Berthold, Bad Wildbad, Germany).
Nuclear and cytoplasmic fractions were prepared using the NE-PER Nuclear and Cytoplasmic Extraction kit (Thermo Fisher Scientific, Waltham, MA, USA). Tissue homogenates or cell lysates (15 μg) were separated by 6–14% SDS-PAGE and transferred to PVDF membranes. […] Immunoreactive bands were detected with a Las-4000 imager (GE Healthcare Life Science, Pittsburgh, PA, USA).

PAK4 = biological target: T1, PAK4 (Homo sapiens, UniProt O96013); test: HotSpot kinase assay (Reaction Biology Corp.), PAK4 enzyme inhibition; type: biochemical; conditions: ATP 10 μM
T1 construct: purchased Reaction Biology Corporation (Malvern, PA, USA)
T1 sequence (O96013 whole entry): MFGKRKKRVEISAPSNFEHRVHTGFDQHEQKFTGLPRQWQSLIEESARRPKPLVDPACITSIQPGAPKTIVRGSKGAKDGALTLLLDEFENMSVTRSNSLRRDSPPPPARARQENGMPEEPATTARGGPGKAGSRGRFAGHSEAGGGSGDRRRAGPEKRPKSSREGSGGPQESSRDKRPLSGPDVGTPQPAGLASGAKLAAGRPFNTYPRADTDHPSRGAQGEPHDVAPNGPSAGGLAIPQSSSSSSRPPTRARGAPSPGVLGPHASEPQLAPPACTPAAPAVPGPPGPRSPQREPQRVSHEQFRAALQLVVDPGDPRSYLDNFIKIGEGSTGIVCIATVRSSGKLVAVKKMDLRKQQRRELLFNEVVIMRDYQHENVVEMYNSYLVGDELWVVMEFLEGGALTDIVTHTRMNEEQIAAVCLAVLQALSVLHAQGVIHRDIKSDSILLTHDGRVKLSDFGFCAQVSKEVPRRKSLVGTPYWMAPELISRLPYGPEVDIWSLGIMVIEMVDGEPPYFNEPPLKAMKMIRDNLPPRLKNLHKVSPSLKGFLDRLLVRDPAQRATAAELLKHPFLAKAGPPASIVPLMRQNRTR
Description: (§1) To examine the enzyme activity, HotSpot kinase assay was performed at Reaction Biology Corporation (Malvern, PA, USA). The kinase and substrate pairs were prepared in reaction buffer: 20 mM HEPES at pH 7.5, 10 mM MgCl2, 1 mM EGTA, 0.02% Brij 35, 0.02 mg/mL BSA, 0.1 mM Na3VO4, 2 mM DTT, and 1% DMSO. Compounds were added into the kinase reaction mixture and incubated for 20 min. Then, ^32 P-ATP was introduced to the mixture to initiate the reaction carried out at 10 μM of ATP concentration. After 2 h at room temperature, the mixture was spotted onto P81 ion exchange paper and kinase activity was then evaluated utilising the filter-binding method. Compounds were tested for single dose enzyme inhibition at a concentration of 20 μM. For the control compound, staurosporine was tested in a 10-dose IC50 mode. To determine the IC50 value, the compounds were tested for 10-doses with 3-fold serial dilution starting at 100 μM.
(§2) Synthesised compounds were evaluated for their in vitro PAK4 enzyme inhibitory activities. In vitro kinase assays were performed using HotSpot kinase assays for relative enzyme inhibitory activity at a single concentration (20 μM) and IC50 assessment at an ATP concentration of 10 μM (Figure 1(B)). […] For the allosteric pocket binder, cyclohexyl group (SPA7012) was preferable to the smaller dimethyl (SPA7011) or hydroxymethyl group (SPA7013), and the aromatic ring (SPA7014) reduced activity compared to the saturated ring (SPA7012). In vitro enzyme IC50 values appeared in the order of SPA7012, SPA7017, and SPA7016. […] Molecular docking analysis was performed on the human PAK4 catalytic domain structure complexed with GNE-2861 (PDB code: 4O0V). The binding pose of SPA7012 overlapped well with the crystal structure of GNE-2861, with the allosteric binder properly positioned in the specific back pocket. The oxygen atom in the tertiary alcohol of the hydrophobic allosteric binder formed hydrogen bonds with the backbone of Phe459 and the side chain of Glu366 (Figure 1(D)). The amine group and nitrogen atom in the pyrazolo[3,4-d]pyrimidine core scaffold also formed hydrogen bonds with Lue398 at the hinge region. Finally, SPA7012 was decided as a lead compound for further examination with satisfactory potency and subtype selectivity.

PAK1 = biological target: T2, PAK1 (Homo sapiens, UniProt Q13153); test: HotSpot kinase assay, PAK subtype selectivity; type: biochemical; conditions: relative percentage inhibition at 20 μM with staurosporine
T2 construct: purchased Reaction Biology Corporation (Malvern, PA, USA)
T2 sequence (Q13153 whole entry): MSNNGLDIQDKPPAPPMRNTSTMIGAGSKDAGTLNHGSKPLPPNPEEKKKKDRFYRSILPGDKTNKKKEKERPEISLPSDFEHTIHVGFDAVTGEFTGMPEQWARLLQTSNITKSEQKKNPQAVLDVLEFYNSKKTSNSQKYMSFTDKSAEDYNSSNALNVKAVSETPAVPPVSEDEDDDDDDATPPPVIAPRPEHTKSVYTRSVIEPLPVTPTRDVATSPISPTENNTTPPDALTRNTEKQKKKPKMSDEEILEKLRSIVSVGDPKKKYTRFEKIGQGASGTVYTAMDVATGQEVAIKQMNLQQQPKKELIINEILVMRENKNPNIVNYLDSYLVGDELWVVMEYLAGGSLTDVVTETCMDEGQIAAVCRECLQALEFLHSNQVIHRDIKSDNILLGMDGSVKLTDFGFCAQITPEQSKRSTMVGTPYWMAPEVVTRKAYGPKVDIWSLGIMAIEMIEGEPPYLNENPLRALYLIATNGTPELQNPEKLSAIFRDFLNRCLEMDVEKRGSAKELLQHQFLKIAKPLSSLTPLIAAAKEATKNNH
Description: as §1, §2

PAK5 = biological target: T3, PAK5 (Homo sapiens, UniProt Q9P286); test: HotSpot kinase assay, PAK subtype selectivity; type: biochemical
T3 construct: purchased Reaction Biology Corporation (Malvern, PA, USA)
T3 sequence (Q9P286 whole entry): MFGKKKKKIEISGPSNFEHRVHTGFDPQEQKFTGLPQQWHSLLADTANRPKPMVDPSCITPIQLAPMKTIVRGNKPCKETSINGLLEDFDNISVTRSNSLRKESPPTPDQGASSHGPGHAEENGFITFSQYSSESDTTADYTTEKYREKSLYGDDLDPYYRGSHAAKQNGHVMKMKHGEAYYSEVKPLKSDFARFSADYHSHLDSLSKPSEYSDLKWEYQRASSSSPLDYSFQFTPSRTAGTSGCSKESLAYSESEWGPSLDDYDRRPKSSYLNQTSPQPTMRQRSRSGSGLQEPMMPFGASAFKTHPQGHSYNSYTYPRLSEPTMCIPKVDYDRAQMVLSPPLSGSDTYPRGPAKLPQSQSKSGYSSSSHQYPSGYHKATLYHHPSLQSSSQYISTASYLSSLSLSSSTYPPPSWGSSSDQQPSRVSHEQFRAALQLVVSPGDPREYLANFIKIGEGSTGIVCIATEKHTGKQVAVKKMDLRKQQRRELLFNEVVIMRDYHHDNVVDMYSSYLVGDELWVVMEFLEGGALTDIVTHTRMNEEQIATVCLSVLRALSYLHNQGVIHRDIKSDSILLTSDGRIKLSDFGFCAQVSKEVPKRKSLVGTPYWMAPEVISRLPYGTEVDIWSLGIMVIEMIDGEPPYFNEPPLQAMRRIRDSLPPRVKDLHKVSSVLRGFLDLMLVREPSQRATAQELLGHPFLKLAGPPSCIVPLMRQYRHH
Description: as §1, §2

PAK3 = biological target: T4, PAK3 (Homo sapiens, UniProt O75914); test: HotSpot kinase assay, PAK subtype selectivity; type: biochemical; conditions: relative percentage inhibition at 20 μM with staurosporine
T4 construct: purchased Reaction Biology Corporation (Malvern, PA, USA)
T4 sequence (O75914 whole entry): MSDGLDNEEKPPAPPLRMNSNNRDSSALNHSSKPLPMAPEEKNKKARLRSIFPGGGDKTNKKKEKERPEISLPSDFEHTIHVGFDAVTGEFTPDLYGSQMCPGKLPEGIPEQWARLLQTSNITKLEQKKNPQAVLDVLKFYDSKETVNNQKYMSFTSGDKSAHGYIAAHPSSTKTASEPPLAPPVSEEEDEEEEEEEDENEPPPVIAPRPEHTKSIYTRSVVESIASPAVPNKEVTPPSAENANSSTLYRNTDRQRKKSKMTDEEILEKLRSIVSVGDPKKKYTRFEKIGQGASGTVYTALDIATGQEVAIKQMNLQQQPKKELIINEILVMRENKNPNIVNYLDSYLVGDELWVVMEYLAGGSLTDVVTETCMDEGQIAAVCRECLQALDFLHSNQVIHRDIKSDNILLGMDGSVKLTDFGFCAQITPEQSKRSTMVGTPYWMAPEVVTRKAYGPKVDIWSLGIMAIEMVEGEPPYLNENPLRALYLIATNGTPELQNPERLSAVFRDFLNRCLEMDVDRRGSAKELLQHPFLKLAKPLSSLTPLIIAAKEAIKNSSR
Description: as §1, §2

PAK2 = biological target: T5, PAK2 (Homo sapiens, UniProt Q13177); test: HotSpot kinase assay, PAK subtype selectivity; type: biochemical; conditions: relative percentage inhibition at 20 μM with staurosporine
T5 construct: purchased Reaction Biology Corporation (Malvern, PA, USA)
T5 sequence (Q13177 whole entry): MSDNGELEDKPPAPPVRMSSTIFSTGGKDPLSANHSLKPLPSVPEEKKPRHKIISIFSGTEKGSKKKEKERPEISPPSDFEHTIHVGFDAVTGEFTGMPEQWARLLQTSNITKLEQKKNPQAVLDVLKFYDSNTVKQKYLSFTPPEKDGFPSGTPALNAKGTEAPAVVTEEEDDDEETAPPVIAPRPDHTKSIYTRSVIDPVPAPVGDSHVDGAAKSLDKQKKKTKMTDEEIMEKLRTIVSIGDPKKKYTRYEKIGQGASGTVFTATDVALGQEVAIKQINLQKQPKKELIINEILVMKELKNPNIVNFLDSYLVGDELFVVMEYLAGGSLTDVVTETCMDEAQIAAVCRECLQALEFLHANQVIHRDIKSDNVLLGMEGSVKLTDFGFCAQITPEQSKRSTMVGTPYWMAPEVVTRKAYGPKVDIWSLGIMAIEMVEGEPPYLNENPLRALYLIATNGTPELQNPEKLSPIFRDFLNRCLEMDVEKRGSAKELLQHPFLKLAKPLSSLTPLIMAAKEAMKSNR
Description: as §1, §2

PAK6 = biological target: T6, PAK6 (Homo sapiens, UniProt Q9NQU5); test: HotSpot kinase assay, PAK subtype selectivity; type: biochemical; conditions: relative percentage inhibition at 20 μM with staurosporine
T6 construct: purchased Reaction Biology Corporation (Malvern, PA, USA)
T6 sequence (Q9NQU5 whole entry): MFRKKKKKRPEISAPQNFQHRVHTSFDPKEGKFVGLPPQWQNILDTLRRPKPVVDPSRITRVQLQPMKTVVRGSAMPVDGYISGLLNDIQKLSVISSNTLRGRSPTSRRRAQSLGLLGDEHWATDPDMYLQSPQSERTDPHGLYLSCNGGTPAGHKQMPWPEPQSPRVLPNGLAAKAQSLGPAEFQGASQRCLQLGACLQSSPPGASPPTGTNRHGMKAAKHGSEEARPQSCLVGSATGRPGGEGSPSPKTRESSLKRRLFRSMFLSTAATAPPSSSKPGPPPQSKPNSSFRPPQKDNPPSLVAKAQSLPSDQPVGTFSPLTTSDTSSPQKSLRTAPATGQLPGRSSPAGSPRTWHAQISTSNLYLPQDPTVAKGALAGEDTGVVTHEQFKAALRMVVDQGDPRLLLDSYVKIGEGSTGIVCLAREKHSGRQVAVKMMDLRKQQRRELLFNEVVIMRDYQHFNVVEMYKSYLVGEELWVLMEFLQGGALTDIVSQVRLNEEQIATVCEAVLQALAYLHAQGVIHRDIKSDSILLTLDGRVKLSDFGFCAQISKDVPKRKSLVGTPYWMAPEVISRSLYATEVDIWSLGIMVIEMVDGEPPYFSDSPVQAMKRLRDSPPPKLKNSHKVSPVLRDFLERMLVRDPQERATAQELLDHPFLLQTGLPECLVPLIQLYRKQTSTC
Description: as §1, §2

primary hepatocytes = test: MTT assay for cell viability; type: cell-based, mouse; conditions: SPA7012 at a concentration of less than 1 μM
Description: Primary hepatocytes were prepared from 8 to 10 week old C57BL/6 male mice by perfusion. […] Hepatocytes were resuspended in DMEM/F12 supplemented with 10% FBS, 10 units/mL penicillin, 10 μg/mL streptomycin, and 10 nM dexamethasone mixed with 42% Percoll, and then centrifuged for 5 min at 1,300 rpm. The cells were plated at 1 × 10^6 cells/well in 6-well culture dishes.
Cell viability was determined by analysing the reduction of 3–(4, 5-dimethylthiazol-2-yl)-2, 5-diphenyltetrazolium bromide (MTT) to formazan.

- IC50 (PAK4; 10-dose, 3-fold serial dilution starting at 100 μM): 770 nM
- inhibition at 20 µM (PAK4; relative percentage inhibition at 20 μM of compounds with staurosporine, read-out: PAK4 enzyme inhibition % inhibitory activity): 97%
- PAK1 % inhibitory activity (PAK1): 16%
- IC50 (PAK5; HotSpot kinase assay): > 100000 nM
- PAK5 % inhibitory activity (PAK5; relative percentage inhibition at 20 μM with staurosporine): 52%
- PAK3 % inhibitory activity (PAK3): 5%
- PAK2 % inhibitory activity (PAK2): 36%
- PAK6 % inhibitory activity (PAK6): 36%
SMILES: Cc1nn(-c2cccc(C#CC3(O)CCCCC3)c2)c2ncnc(N)c12 [Compound 14b, 3-(4-Amino-3-methylpyrazolo[3,4-d]pyrimidin-1-yl)phenylethynylcyclohexan-1-ol]
- PAK4-mediated phosphorylation of Nrf2 at threonine residue [1]: effectively inhibited
- Effect on cell viability (MTT) (primary hepatocytes): little effect
